This is an account of results in US12139503B2, “Borylated amino acid compositions for use in boron neutron capture therapy and methods thereof” (TAE Life Sciences, priority 2020, dated 2024).

The subject of experiment [1] is FaDu cells. Briefly: Cellular retention of TLS00192 and BPA-fructose in FaDu cells. The note with it: sixteen (16) hours after initial 2 hour incubation. It counts as cell-based, human. From the text: (§1) The FaDu cell line is a human nasopharyngeal carcinoma cell line. The cell line was obtained from the American Type Culture Collection (“ATCC”), located at 10801 University Boulevard Manassas, VA 20110-2209 USA in 2019. It has ATCC designation of HTB-43™ and lot number 70014320. FaDu cells are propagated in DMEM culture medium supplemented with 10% fetal bovine serum with routine passage by trypsinization and reseeding. The cell line is cryopreserved in liquid nitrogen.
(§2) Additionally, boron measurement was performed by ICP OES. on an Agilent 5110 ICP-OES. The data was analyzed using Agilent's ICP Expert Software, version 7.4.2.10790. Boron was measured axially at the 249.772 nm wavelength and the internal standard Beryllium was measured axially at the 313.042 nm wavelength. Beryllium internal standard was spiked into the solution at 1:5 the flowrate before introduction to the spray chamber via a T-connector. Finally, A standard curve using 1000, 100, 10, 1 and 0 ppb of boron was used to calculate the concentration of boron in each sample.
Subsequently, to determine whether the efflux mediated by either LAT1 or LAT2 or other transporters is equal for BPA-fructose relative to TLS00192 in cellular retention tests in FaDu cells. […] Data is expressed as % residual boron content of time zero amount.

The subject of experiment [2] is FaDu cells. Put plainly: Cellular retention of TLS00190, TLS00178 and BPA-Fructose in FaDu cells. It counts as cell-based, human. As to the method:
Subsequently, to determine whether the efflux mediated by either LAT1 or LAT2 or other transporters is equal for BPA-fructose relative to TLS00192 in cellular retention tests in FaDu cells. The “time zero” sample was immediately harvested following an initial two (2) hour incubation with the compounds. Cells were then harvested at indicated times and subjected to lysis, boron measurement, and protein content. Data is expressed as % residual boron content of time zero amount. In addition, the retention of TLS00190 and TLS00178 following initial 2 hour uptake compared to BPA-Fructose was also studied in FaDu cells.

In experiment [3] the test system is FaDu cells. Put plainly: Boron uptake of TLS00190 and TLS00178 in FaDu cells. In kind it is cell-based, human. The note with it: two (2) hour incubation.
Text: as §1
Additionally, boron measurement was performed by ICP OES. on an Agilent 5110 ICP-OES. The data was analyzed using Agilent's ICP Expert Software, version 7.4.2.10790. Boron was measured axially at the 249.772 nm wavelength and the internal standard Beryllium was measured axially at the 313.042 nm wavelength. Beryllium internal standard was spiked into the solution at 1:5 the flowrate before introduction to the spray chamber via a T-connector. […]
The efficiency of boron uptake of TLS00190 and TLS00178 was determined using FaDu cells. Following a two (2) hour incubation, cells were harvested and suspended in ice cold PBS and a portion was lysed in RIPA buffer and protein content determined by BCA assay. […] After two (2) hours of incubation the amount of the compounds taken up was determined based on the boron measurements.

A further experiment concerns the target T1, LAT-1 (Homo sapiens, UniProt Q01650).
T1 construct: host or cells: FaDu human nasopharyngeal carcinoma cells
Briefly: LAT-1 mediated competition studies, boron uptake in FaDu cells. It counts as cell-based. The note with it: HBSS, 2 hours, 37° C.
Text: as §1, §2
It has been shown that the system L transporter (LAT-1) mediates the transport of L-amino acids into cells and plays a major role in the uptake of BPA in BPA-based BNCT (WONGTHAI, et. al. Cancer Sci Vol. 106, pg. 279-286, 2015). To assess whether TLS00192 is transported via LAT-1 dependent mechanism we interrogated its ability to be outcompeted by the LAT1 substrate L-Phe FaDu cells were incubated in HBSS medium for two (2) hours at 37° C. with 0.5 mM of either TLS00192 or BPA-fructose in the absence (Subset A) or presence of increasing concentrations of competitor Phe (Subset B), L-system antagonist BCH (Subset C) or LAT-1 specific inhibitor JPH203 (Subset D). The cells were harvested, and the amount of each boronated cell associated compound was determined by ICP OES. The IC50s for the respective inhibitor on each compound is also indicated. BPA was used as a positive control for LAT-1-mediated uptake.

The test system of experiment [4] is FaDu nasopharnygeal squamous carcinoma cells. Put plainly: Kinetic parameters of boron uptake in FaDu cells (ICP-OES). It counts as cell-based, human. The note with it: Michaelis-Menton non-linear regression. From the text:
To investigate the ability of TLS00192 to deliver boron to FaDu nasopharnygeal squamous carcinoma cells, we interrogated a range of concentrations bracketing what is hypothsized to be physiologically relevant amounts for boronophenylalanine (BPA), currently the most widely studied boron drug in BNCT clinical practice.
The FaDu cell line is a human nasopharyngeal carcinoma cell line. The cell line was obtained from the American Type Culture Collection (“ATCC”), located at 10801 University Boulevard Manassas, VA 20110-2209 USA in 2019. It has ATCC designation of HTB-43™ and lot number 70014320. […]
Additionally, boron measurement was performed by ICP OES. on an Agilent 5110 ICP-OES. The data was analyzed using Agilent's ICP Expert Software, version 7.4.2.10790. Boron was measured axially at the 249.772 nm wavelength and the internal standard Beryllium was measured axially at the 313.042 nm wavelength. […]
To determine the kinetic parameters of TLS00192, Boron compounds were added to FaDu cells at the final concentration of 2.5 mM in HBSS and the cells were incubated at 37° C., in a humidified 5% CO2 atmosphere for two (2) hrs with shaking. Following two (2) hour incubation, cells were harvested and suspended in ice cold PBS and lysed in RIPA buffer and protein content determined by BCA assay. […] Results were expressed as ng boron/per mg cell protein/per minute. […]

Another experiment deals with intracranial tumor. The note with it: BNCT with beam directed to surgically exposed intracranial tumor; cited from earlier work.
The mark [5] stands for this setting: twenty (20) hrs after initial 2 hour uptake.
The mark [6] stands for this setting: 0.5 mM BPA-fructose as substrate, read-out: IC50 of competitor on boron uptake of BPA-Fructose.
Setting [7] is: 0.5 mM TLS00192 as substrate, read-out: IC50 of competitor on boron uptake of TLS00192.

Where two headings read alike, the source gives them in different places.

T1 sequence (Q01650 whole entry): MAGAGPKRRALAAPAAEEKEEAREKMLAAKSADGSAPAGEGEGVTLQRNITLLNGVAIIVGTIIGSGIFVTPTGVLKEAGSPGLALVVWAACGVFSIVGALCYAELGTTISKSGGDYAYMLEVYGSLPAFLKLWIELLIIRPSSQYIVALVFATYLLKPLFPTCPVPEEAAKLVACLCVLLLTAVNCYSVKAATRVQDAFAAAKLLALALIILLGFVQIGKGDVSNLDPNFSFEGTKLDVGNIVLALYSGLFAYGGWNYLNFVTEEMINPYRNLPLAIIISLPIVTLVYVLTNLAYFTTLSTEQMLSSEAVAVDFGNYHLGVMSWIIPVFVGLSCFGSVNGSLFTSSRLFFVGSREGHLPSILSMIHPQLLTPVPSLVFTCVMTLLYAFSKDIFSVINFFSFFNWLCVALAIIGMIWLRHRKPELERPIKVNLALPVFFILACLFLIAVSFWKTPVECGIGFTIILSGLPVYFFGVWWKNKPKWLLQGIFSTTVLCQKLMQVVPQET
T1 sequence (P08195 102-630 partner): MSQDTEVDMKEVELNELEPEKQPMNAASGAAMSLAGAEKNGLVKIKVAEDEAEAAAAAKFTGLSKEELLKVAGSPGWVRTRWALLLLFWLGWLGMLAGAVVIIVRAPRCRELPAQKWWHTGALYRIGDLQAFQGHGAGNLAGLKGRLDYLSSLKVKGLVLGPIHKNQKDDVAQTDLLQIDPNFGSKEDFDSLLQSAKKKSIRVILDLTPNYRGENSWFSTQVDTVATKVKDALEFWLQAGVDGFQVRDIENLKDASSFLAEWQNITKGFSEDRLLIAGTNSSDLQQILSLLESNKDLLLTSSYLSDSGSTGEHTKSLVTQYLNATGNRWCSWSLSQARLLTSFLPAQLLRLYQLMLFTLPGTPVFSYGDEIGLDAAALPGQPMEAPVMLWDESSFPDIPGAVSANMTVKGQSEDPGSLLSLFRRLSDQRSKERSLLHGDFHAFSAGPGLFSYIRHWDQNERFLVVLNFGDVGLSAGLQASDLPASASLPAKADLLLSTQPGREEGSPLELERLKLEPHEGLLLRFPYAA

For `N[C@@H](Cc1ccc(B(O)O)cc1)C(=O)O` [BPA, 4-Borono-L-phenylalanine], in the experiment with FaDu cells [1], the “% residual boron content of time zero amount” value is on record as “approximately 10%”.

Regarding `COCCOCCOc1ccc(C[C@H](N)C(=O)O)cc1` [TLS00190], the “retention, cellular level remaining” value is reported as 43% in the experiment on FaDu cells [2] (setting [5]) and 14% in the experiment on FaDu cells [2] (two (2) hours after initial 2 hour uptake). In the experiment with FaDu cells [3], the “boron uptake (ng boron per mg protein), result in words” value is reported as “retain the ability to be transported into FaDu cancer cells”.

A word on the IC50: it is the point on the concentration scale where inhibition reaches its midpoint. For `N[C@@H](Cc1ccccc1)C(=O)O` [L-Phe, phenylalanine], the results for the IC50 at LAT-1 (setting [6]) and on LAT-1 (setting [7]) were 40 µM and 430 µM, respectively.

`NC1(C(=O)O)CC2CCC1C2` (stereo not shown) [BCH, 2-aminobicyclo-(2,2,1)-heptane-2-carboxylic acid]: the results for the IC50 at LAT-1 (setting [6]) and at LAT-1 (setting [7]) were 140 µM and 800 µM, respectively.

For the compound `Nc1cc(COc2c(Cl)cc(C[C@H](N)C(=O)O)cc2Cl)c2oc(-c3ccccc3)nc2c1` [JPH203], the IC50 at LAT-1 (0.5 mM BPA-fructose as substrate, read-out: IC50 of inhibitor on LAT1-mediated uptake of BPA) was 0.78 µM; on LAT-1 (0.5 mM TLS00192 as substrate, read-out: IC50 of inhibitor on LAT1-mediated uptake of TLS00192) it was 0.19 µM.

Take `CNC(=O)[C@@H](N)Cc1c[nH]cn1` [TLS00178]: in the experiment on FaDu cells [2] (setting [5]), the “retention, cellular level remaining” value is 57%. In the experiment on FaDu cells [3], the “boron uptake (ng boron per mg protein), result in words” value is given as “retain the ability to be transported into FaDu cancer cells”.

One may read the Km as the substrate concentration at which the rate is half of its maximum. On to `N[C@@H](Cc1ccc(O)c(B(O)O)c1)C(=O)O` [TLS00192], for which, in experiment [4] (2 hr incubation in HBSS at 37° C.), the Km came out at 1970 µM. Also, the “apparent Vmax” value in experiment [4] (2 hr incubation) was determined as 15.87 ng boron mg^−1 min^−1. In the experiment on FaDu cells [1], the “% residual boron content of time zero amount” value is reported as “greater than 40%”.

Regarding undecahydrododecaborane thiol [BSH], the 5-year survival rate in the experiment on intracranial tumor is reported as 58%.
